Test results as given in ChEMBL document CHEMBL4038275, “t-Butyl pyridine and phenyl C-region analogues of 2-(3-fluoro-4-methylsulfonylaminophenyl)propanamides as potent TRPV1 antagonists” (Bioorg Med Chem, 2017).
Activity calls are given as the source filed them. The calls are words filed in the database; no cut-off is given here.

target: Transient receptor potential cation channel subfamily V member 1 (Homo sapiens, UniProt Q8NER1); assay: Antagonist activity at human TRPV1 expressed in CHOK1 cells assessed as inhibition of capsaicin induced calcium influx pretreated for 6 mins followed by capsaicin addition by Fluo-4/Pluronic F127 probe based FLIPR method; type: cell-based
Sequence (Q8NER1 whole entry): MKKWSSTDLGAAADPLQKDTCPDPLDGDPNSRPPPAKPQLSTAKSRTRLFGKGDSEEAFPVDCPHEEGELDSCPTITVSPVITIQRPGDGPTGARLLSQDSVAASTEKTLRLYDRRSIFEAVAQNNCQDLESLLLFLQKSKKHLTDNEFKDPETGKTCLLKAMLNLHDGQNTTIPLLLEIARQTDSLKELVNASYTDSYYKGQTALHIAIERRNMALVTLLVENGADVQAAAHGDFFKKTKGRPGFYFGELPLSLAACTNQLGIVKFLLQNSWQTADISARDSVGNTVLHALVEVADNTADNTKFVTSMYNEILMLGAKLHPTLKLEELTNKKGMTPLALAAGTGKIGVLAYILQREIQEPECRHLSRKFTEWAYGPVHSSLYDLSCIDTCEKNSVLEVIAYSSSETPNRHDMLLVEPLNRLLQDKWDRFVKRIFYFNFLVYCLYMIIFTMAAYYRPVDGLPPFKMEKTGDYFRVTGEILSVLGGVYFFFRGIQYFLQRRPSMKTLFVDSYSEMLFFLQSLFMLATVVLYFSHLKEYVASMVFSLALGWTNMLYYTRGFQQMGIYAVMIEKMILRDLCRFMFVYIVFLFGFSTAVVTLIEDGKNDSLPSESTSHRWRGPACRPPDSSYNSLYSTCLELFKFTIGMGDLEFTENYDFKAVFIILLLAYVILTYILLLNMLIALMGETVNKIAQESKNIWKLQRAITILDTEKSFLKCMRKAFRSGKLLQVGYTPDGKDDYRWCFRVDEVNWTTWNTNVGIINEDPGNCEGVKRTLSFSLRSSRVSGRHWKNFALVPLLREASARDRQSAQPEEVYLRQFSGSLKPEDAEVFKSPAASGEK

**Q.** `CC(C(=O)NCc1ccc(C(C)(C)C)nc1SC1CCCCC1)c1ccc(NS(C)(=O)=O)c(F)c1` (stereo not drawn) was tested. Which Ki did it give?
**A.** 8.5 nM

**Q.** `CC(C(=O)NCc1ccc(C(C)(C)C)nc1SC1CCCC1)c1ccc(NS(C)(=O)=O)c(F)c1` (stereo not drawn) was tested. Which Ki did it give?
**A.** 2.5 nM

**Q.** With `CC(C(=O)NCc1ccc(C(C)(C)C)nc1SCCCN(C)C)c1ccc(NS(C)(=O)=O)c(F)c1` (stereo not drawn) as the molecule, how does the Ki read?
**A.** 51.8 nM

**Q.** With `CC(C(=O)NCc1ccc(C(C)(C)C)cc1C1CCCCC1)c1ccc(NS(C)(=O)=O)c(F)c1` (stereo not drawn) as the molecule, how does the Ki read?
**A.** 9.8 nM

**Q.** With `C[C@@H](C(=O)NCc1ccc(C(C)(C)C)nc1SC1CCCCC1)c1ccc(NS(C)(=O)=O)c(F)c1` as the molecule, how does the Ki read?
**A.** 36.4 nM

**Q.** `C[C@H](C(=O)NCc1ccc(C(C)(C)C)nc1SC1CCCCC1)c1ccc(NS(C)(=O)=O)c(F)c1` was tested. Which Ki did it give?
**A.** 3.4 nM

**Q.** With `CCC1CCN(c2nc(C(C)(C)C)ccc2CNC(=O)C(C)c2ccc(NS(C)(=O)=O)c(F)c2)CC1` (stereo not drawn) as the molecule, how does the Ki read?
**A.** 0.1 nM

**Q.** How did the Ki turn out when `CC(C(=O)NCc1ccc(C(C)(C)C)cc1SC1CCCCC1)c1ccc(NS(C)(=O)=O)c(F)c1` (stereo not drawn) was run?
**A.** 7.4 nM

**Q.** With `CCCCSc1cc(C(C)(C)C)ccc1CNC(=O)C(C)c1ccc(NS(C)(=O)=O)c(F)c1` (stereo not drawn) as the molecule, how does the Ki read?
**A.** 6.7 nM

**Q.** Which Ki does the source give for `CC(C(=O)NCc1ccc(C(C)(C)C)cc1N1CCCC1)c1ccc(NS(C)(=O)=O)c(F)c1` (stereo not drawn) here?
**A.** 8.1 nM

**Q.** For `CCCCSc1nc(C(C)(C)C)ccc1CNC(=O)C(C)c1ccc(NS(C)(=O)=O)c(F)c1` (stereo not drawn), which Ki is on record?
**A.** 3.2 nM

**Q.** How did the Ki turn out when `COc1ccc(CSc2nc(C(C)(C)C)ccc2CNC(=O)C(C)c2ccc(NS(C)(=O)=O)c(F)c2)cc1` (stereo not drawn) was run?
**A.** 3.5 nM

**Q.** For `CC(C)CCSc1nc(C(C)(C)C)ccc1CNC(=O)C(C)c1ccc(NS(C)(=O)=O)c(F)c1` (stereo not drawn), which Ki is on record?
**A.** 5.9 nM

**Q.** Which Ki does the source give for `CC(C(=O)NCc1ccc(C(C)(C)C)nc1SCc1ccc(Cl)cc1)c1ccc(NS(C)(=O)=O)c(F)c1` (stereo not drawn) here?
**A.** 3.4 nM

**Q.** Which Ki does the source give for `CCCOc1cc(C(C)(C)C)ccc1CNC(=O)C(C)c1ccc(NS(C)(=O)=O)c(F)c1` (stereo not drawn) here?
**A.** 4.4 nM

**Q.** For `CC(C(=O)NCc1ccc(C(C)(C)C)nc1N1CCC(Cc2ccccc2)CC1)c1ccc(NS(C)(=O)=O)c(F)c1` (stereo not drawn), which Ki is on record?
**A.** 0.3 nM

**Q.** Which Ki does the source give for `CC1CCN(c2cc(C(C)(C)C)ccc2CNC(=O)C(C)c2ccc(NS(C)(=O)=O)c(F)c2)CC1` (stereo not drawn) here?
**A.** 0.7 nM

**Q.** `C[C@@H](C(=O)NCc1ccc(C(C)(C)C)cc1SC1CCCCC1)c1ccc(NS(C)(=O)=O)c(F)c1` was tested. Which Ki did it give?
**A.** 89.2 nM

**Q.** With `CC(C(=O)NCc1ccc(C(C)(C)C)nc1-c1ccc(F)cc1)c1ccc(NS(C)(=O)=O)c(F)c1` (stereo not drawn) as the molecule, how does the Ki read?
**A.** 0.3 nM

**Q.** How did the Ki turn out when `CC(C)CCOc1cc(C(C)(C)C)ccc1CNC(=O)C(C)c1ccc(NS(C)(=O)=O)c(F)c1` (stereo not drawn) was run?
**A.** 0.6 nM

**Q.** Which Ki does the source give for `CCCCCCSc1nc(C(C)(C)C)ccc1CNC(=O)C(C)c1ccc(NS(C)(=O)=O)c(F)c1` (stereo not drawn) here?
**A.** 1.5 nM

**Q.** `CCCCN(C)c1nc(C(C)(C)C)ccc1CNC(=O)C(C)c1ccc(NS(C)(=O)=O)c(F)c1` (stereo not drawn) was tested. Which Ki did it give?
**A.** 1.2 nM

**Q.** How did the Ki turn out when `CC(C(=O)NCc1ccc(C(C)(C)C)nc1N1CCCCC1)c1ccc(NS(C)(=O)=O)c(F)c1` (stereo not drawn) was run?
**A.** 1.1 nM

**Q.** For `CC(C(=O)NCc1ccc(C(C)(C)C)nc1SCCCN1CCOCC1)c1ccc(NS(C)(=O)=O)c(F)c1` (stereo not drawn), which Ki is on record?
**A.** 112 nM

**Q.** Which Ki does the source give for `CC(C(=O)NCc1ccc(C(C)(C)C)cc1N1CCCCCC1)c1ccc(NS(C)(=O)=O)c(F)c1` (stereo not drawn) here?
**A.** 6.2 nM

**Q.** With `COc1cccc(COc2nc(C(C)(C)C)ccc2CNC(=O)C(C)c2ccc(NS(C)(=O)=O)c(F)c2)c1` (stereo not drawn) as the molecule, how does the Ki read?
**A.** 6 nM

**Q.** Which Ki does the source give for `CCCCCSc1nc(C(C)(C)C)ccc1CNC(=O)C(C)c1ccc(NS(C)(=O)=O)c(F)c1` (stereo not drawn) here?
**A.** 3.1 nM

**Q.** `C[C@H](C(=O)NCc1ccc(C(C)(C)C)cc1SC1CCCCC1)c1ccc(NS(C)(=O)=O)c(F)c1` was tested. Which Ki did it give?
**A.** 6 nM

**Q.** For `CC(C(=O)NCc1ccc(C(C)(C)C)nc1SCCCN1CCCC1)c1ccc(NS(C)(=O)=O)c(F)c1` (stereo not drawn), which Ki is on record?
**A.** 17.1 nM

**Q.** For `CC(C(=O)NCc1ccc(C(C)(C)C)cc1OCc1ccc(F)cc1)c1ccc(NS(C)(=O)=O)c(F)c1` (stereo not drawn), which Ki is on record?
**A.** 3.8 nM

**Q.** For `CCCCCCOc1cc(C(C)(C)C)ccc1CNC(=O)C(C)c1ccc(NS(C)(=O)=O)c(F)c1` (stereo not drawn), which Ki is on record?
**A.** 0.5 nM

**Q.** With `CC(C(=O)NCc1ccc(C(C)(C)C)cc1OCc1ccccc1)c1ccc(NS(C)(=O)=O)c(F)c1` (stereo not drawn) as the molecule, how does the Ki read?
**A.** 2.9 nM

**Q.** With `CC(C(=O)NCc1ccc(C(C)(C)C)nc1SCc1ccccc1)c1ccc(NS(C)(=O)=O)c(F)c1` (stereo not drawn) as the molecule, how does the Ki read?
**A.** 4 nM

**Q.** Which Ki does the source give for `CCCCN(C)c1cc(C(C)(C)C)ccc1CNC(=O)C(C)c1ccc(NS(C)(=O)=O)c(F)c1` (stereo not drawn) here?
**A.** 1 nM

**Q.** For `CCCCCc1nc(C(C)(C)C)ccc1CNC(=O)C(C)c1ccc(NS(C)(=O)=O)c(F)c1` (stereo not drawn), which Ki is on record?
**A.** 1.9 nM

**Q.** How did the Ki turn out when `CC(C(=O)NCc1ccc(C(C)(C)C)cc1N1CCN(c2ccccc2)CC1)c1ccc(NS(C)(=O)=O)c(F)c1` (stereo not drawn) was run?
**A.** 0.8 nM

**Q.** Which Ki does the source give for `CC(C(=O)NCc1ccc(C(C)(C)C)nc1OCc1ccc(F)cc1)c1ccc(NS(C)(=O)=O)c(F)c1` (stereo not drawn) here?
**A.** 0.8 nM

**Q.** How did the Ki turn out when `CC(C(=O)NCc1ccc(C(C)(C)C)nc1C1CCCCC1)c1ccc(NS(C)(=O)=O)c(F)c1` (stereo not drawn) was run?
**A.** 3.1 nM

**Q.** With `CC(C(=O)NCc1ccc(C(C)(C)C)nc1SCc1ccccc1Cl)c1ccc(NS(C)(=O)=O)c(F)c1` (stereo not drawn) as the molecule, how does the Ki read?
**A.** 3.8 nM

**Q.** For `CC(C(=O)NCc1ccc(C(C)(C)C)nc1SCC(F)(F)F)c1ccc(NS(C)(=O)=O)c(F)c1` (stereo not drawn), which Ki is on record?
**A.** 4.1 nM

**Q.** `CC(C(=O)NCc1ccc(C(C)(C)C)cc1N1CCCCC1)c1ccc(NS(C)(=O)=O)c(F)c1` (stereo not drawn) was tested. Which Ki did it give?
**A.** 1.9 nM

**Q.** `CCCCCc1cc(C(C)(C)C)ccc1CNC(=O)C(C)c1ccc(NS(C)(=O)=O)c(F)c1` (stereo not drawn) was tested. Which Ki did it give?
**A.** 2.8 nM

tested on: Mus musculus; assay: Analgesic activity in po dosed Bennett mouse model of neuropathic pain assessed as reduction in chronic constriction injury-induced cold allodynia; type: functional, organism-based

**Q.** Which Activity does the source give for `C[C@H](C(=O)NCc1ccc(C(C)(C)C)cc1SC1CCCCC1)c1ccc(NS(C)(=O)=O)c(F)c1` here?
**A.** Dose-dependent effect

tested on: Mus musculus; assay: Analgesic activity in Bennett mouse model of neuropathic pain assessed as reduction in chronic constriction injury-induced cold allodynia at 10 mg/kg, po relative to control; type: functional

**Q.** `C[C@H](C(=O)NCc1ccc(C(C)(C)C)nc1SC1CCCCC1)c1ccc(NS(C)(=O)=O)c(F)c1` was tested. Which Activity did it give?
**A.** Active

**Q.** `C[C@H](C(=O)NCc1ccc(C(C)(C)C)cc1SC1CCCCC1)c1ccc(NS(C)(=O)=O)c(F)c1` was tested. Which MPE did it give?
**A.** 83%

tested on: Mus musculus; assay: Analgesic activity in Bennett mouse model of neuropathic pain assessed as reduction in chronic constriction injury-induced cold allodynia at 3 mg/kg, po relative to control; type: functional

**Q.** Which MPE does the source give for `C[C@H](C(=O)NCc1ccc(C(C)(C)C)nc1SC1CCCCC1)c1ccc(NS(C)(=O)=O)c(F)c1` here?
**A.** 50%

tested on: Mus musculus; assay: Analgesic activity in mouse assessed as reduction in capsaicin induced hypothermia at 3 mg/kg, po relative to control; type: functional

**Q.** For `C[C@H](C(=O)NCc1ccc(C(C)(C)C)nc1SC1CCCCC1)c1ccc(NS(C)(=O)=O)c(F)c1`, which MPE is on record?
**A.** 46%

tested on: Mus musculus; assay: Analgesic activity in mouse assessed as reduction in capsaicin induced hypothermia at 10 mg/kg, po relative to control; type: functional

**Q.** How did the MPE turn out when `C[C@H](C(=O)NCc1ccc(C(C)(C)C)nc1SC1CCCCC1)c1ccc(NS(C)(=O)=O)c(F)c1` was run?
**A.** 15%
